# Target: T1, FXR (Rattus norvegicus, UniProt Q62735)
# T1 construct: expressed in transfected cells; host or cells: Human embryonic kidney 293 cells
# Assay: Reporter gene transactivation assay
# Type: cell-based
# Settings: Human embryonic kidney 293 cells transfected with rFXR, hRXRβ, hGrip1 and DR-4 or IR-1 luciferase reporter
# Protocol: Human embryonic kidney 293 cells were seeded into 48-well culture plates at 2×10^4 cells per well in a Dulbecco's modified Eagle's medium (DMEM) supplemented with 10% fetal bovine serum. After 24 hours, cells were transfected by a calcium phosphate coprecipitation method with 250 ng of the pGL3/DR-4-luc reporter gene which consists of three copies of AGGTCAagccAGGTCA (DR-4) or pGL3/IR-1-luc which consists of three copies of GGGTCAcTGACCC (IR-1) fused to nucleotides −56 to +109 of the human c-fos promoter in front of the firefly luciferase gene in the plasmid basic pGL3 (Promega, Madison, Wis.), 40 ng pSG5/hRXRβ, 40 ng pR5/rFXR,10 ng pSG5/hGrip1, 0.4 ng CMV/R-luc (transfection normalization reporter, Promega) and 250 ng carrier DNA per well. […] After another 12-24 hours, cells were washed with PBS and refed with DMEM supplemented with 4% delipidated fetal bovine serum. Chemicals dissolved in ethanol were added in duplicate to the medium so that the final concentration of alcohol was 0.2%. After 24-48 hours, cells were harvested and luciferase activity was measured with a commercial kit (Promega Dual luciferase II) on a Monolight luminometer (Becton Dickenson, Mountain View, Calif.). FXR dimerizes with RXR to form an FXR/RXR heterodimer, which binds to both DR-4 response elements and IR-1 response elements in a ligand-dependent manner and transactivates the reporter gene expression.
# T1 sequence (Q62735 whole entry): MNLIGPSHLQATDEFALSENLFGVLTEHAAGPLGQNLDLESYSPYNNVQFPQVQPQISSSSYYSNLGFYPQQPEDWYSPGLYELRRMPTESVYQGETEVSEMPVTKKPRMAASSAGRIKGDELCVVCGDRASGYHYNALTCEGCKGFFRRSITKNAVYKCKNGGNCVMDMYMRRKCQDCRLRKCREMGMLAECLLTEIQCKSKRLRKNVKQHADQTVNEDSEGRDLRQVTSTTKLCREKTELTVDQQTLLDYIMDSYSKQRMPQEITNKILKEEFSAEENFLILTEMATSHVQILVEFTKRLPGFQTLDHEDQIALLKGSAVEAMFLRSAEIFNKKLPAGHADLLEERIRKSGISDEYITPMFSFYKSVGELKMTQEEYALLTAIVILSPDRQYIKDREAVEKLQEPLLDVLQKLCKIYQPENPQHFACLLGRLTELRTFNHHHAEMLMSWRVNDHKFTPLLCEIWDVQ
# T1 sequence (P28702 whole entry partner): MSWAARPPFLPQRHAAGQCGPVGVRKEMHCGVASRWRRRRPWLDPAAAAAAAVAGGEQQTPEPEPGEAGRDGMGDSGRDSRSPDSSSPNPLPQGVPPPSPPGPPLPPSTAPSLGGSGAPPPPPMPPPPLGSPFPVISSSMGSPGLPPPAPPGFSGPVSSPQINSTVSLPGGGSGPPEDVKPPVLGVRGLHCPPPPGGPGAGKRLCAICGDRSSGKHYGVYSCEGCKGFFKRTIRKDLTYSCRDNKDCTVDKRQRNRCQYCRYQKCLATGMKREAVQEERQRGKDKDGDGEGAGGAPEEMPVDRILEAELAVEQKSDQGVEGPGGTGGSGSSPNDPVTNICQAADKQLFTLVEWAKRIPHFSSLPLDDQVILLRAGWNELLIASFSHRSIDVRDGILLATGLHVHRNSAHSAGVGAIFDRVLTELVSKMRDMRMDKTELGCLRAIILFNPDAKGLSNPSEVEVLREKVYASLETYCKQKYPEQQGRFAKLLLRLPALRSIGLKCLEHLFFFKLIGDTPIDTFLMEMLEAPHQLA
# T1 sequence (Q15596 whole entry partner): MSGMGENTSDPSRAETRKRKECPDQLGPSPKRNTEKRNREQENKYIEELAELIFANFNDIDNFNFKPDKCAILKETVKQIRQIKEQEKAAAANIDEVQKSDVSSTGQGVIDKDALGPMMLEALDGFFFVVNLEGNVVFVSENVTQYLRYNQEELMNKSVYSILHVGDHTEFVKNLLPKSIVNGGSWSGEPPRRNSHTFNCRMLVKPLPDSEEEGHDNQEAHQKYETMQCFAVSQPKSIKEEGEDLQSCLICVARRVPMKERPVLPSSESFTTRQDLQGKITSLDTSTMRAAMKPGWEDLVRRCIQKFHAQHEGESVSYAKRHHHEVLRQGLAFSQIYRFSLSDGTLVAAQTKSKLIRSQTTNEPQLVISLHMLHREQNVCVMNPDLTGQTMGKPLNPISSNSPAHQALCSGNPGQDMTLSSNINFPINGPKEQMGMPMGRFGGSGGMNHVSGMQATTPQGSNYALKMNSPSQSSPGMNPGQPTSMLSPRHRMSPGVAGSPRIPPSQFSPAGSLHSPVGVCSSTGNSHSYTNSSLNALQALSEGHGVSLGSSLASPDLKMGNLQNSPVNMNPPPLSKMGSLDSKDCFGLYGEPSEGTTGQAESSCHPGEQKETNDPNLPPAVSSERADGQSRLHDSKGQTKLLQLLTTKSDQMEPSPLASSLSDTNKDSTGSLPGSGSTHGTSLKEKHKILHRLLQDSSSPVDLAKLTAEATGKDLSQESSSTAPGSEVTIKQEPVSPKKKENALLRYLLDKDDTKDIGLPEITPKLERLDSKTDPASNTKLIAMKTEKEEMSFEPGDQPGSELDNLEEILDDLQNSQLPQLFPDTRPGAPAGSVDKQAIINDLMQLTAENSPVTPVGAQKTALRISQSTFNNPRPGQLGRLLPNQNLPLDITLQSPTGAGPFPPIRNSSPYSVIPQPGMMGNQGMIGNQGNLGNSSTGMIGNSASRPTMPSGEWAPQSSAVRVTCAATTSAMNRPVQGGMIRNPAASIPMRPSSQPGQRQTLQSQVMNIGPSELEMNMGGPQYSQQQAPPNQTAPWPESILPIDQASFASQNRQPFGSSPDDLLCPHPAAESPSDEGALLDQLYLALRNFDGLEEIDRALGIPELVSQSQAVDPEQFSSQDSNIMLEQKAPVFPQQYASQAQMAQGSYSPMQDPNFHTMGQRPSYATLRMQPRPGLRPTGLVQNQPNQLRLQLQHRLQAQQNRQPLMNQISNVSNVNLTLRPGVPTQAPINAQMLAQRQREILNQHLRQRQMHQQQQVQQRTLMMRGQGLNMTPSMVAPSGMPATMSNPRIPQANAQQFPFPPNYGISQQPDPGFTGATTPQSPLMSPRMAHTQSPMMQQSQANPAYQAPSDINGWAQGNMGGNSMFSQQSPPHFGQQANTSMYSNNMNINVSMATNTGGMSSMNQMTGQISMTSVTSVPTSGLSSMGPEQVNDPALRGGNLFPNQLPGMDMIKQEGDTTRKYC
row,"agonists of FXF (reporter gene transactivation, luciferase activity)",Structure (SMILES)
1,potent agonists,"C[C@H](CCC(=O)N(C)C)[C@H]1CC[C@H]2[C@@H]3CC[C@@H]4CCCC[C@]4(C)[C@H]3CC[C@]12C [N,N-dimethyl-5β-cholanoic acid-24-amide]"
2,potent agonists,"C[C@H](CCC(=O)NCC(F)(F)F)[C@H]1CC[C@H]2[C@@H]3CC[C@@H]4CCCC[C@]4(C)[C@H]3CC[C@]12C [N-(2,2,2-trifluoroethyl)-5β-cholanoic acid-24-amide]"
3,potent agonists,C[C@H](CCC(=O)NCCCl)[C@H]1CC[C@H]2[C@@H]3CC[C@@H]4CCCC[C@]4(C)[C@H]3CC[C@]12C [N-(2-chloroethyl)-5β-cholanoic acid-24-amide]
4,potent agonists,C[C@H](CCC(=O)NCC(=O)O)[C@H]1CC[C@H]2[C@@H]3CC[C@@H]4CCCC[C@]4(C)[C@H]3CC[C@]12C [N-carboxymethyl-5β-cholanoic acid-24-amide]
5,potent agonists,CCOC(=O)CNC(=O)CC[C@@H](C)[C@H]1CC[C@H]2[C@@H]3CC[C@@H]4CCCC[C@]4(C)[C@H]3CC[C@]12C [N-ethoxycarbonylmethyl-5β-cholanoic acid-24-amide]
6,potent agonists,C[C@H](CCC(=O)NNC=O)[C@H]1CC[C@H]2[C@@H]3CC[C@@H]4CCCC[C@]4(C)[C@H]3CC[C@]12C [N-formylamino-5β-cholanoic acid-24-amide]
7,potent agonists,CNC(=O)CC[C@@H](C)[C@H]1CC[C@H]2[C@@H]3CC[C@@H]4CCCC[C@]4(C)[C@H]3CC[C@]12C [N-methyl-5β-cholanoic acid-24-amide]
8,potent agonists,CON(C)C(=O)CC[C@@H](C)[C@H]1CC[C@H]2[C@@H]3CC[C@@H]4CCCC[C@]4(C)[C@H]3CC[C@]12C [N-methyl-N-methoxy-5β-cholanoic acid-24-amide]
9,potent agonists,CNN(C)C(=O)CC[C@@H](C)[C@H]1CC[C@H]2[C@@H]3CC[C@@H]4CCCC[C@]4(C)[C@H]3CC[C@]12C [N-methyl-N-methylamino-5β-cholanoic acid-24-amide]
10,potent agonists,C[C@H](CCC(=O)NCCS(=O)(=O)O)[C@H]1CC[C@H]2[C@@H]3CC[C@@H]4CCCC[C@]4(C)[C@H]3CC[C@]12C [N-sulfonylethyl-5β-cholanoic acid-24-amide]
11,potent agonists,"C[C@H](CCC(=O)N(C)CC(=O)O)[C@H]1CC[C@H]2[C@@H]3CC[C@@H]4CCCC[C@]4(C)[C@H]3CC[C@]12C [cholamide, N-methyl-N-carboxymethyl-5β-cholanoic acid-24-amide]"
12,potent agonists,"CC(CCC(=O)O)C1CCC2C3CC=C4C=CCCC4(C)C3CCC12C (centres unmarked) [Δ^3,5-cholanoic acid, 4-(10,13-Dimethyl-2,7,8,9,10,11,12,13,14,15,16,17-dodecahydro-1H-cyclopenta[a]phenanthren-17-yl)-pentanoic acid]"

row,Structure (SMILES),"agonists of FXF (reporter gene transactivation, luciferase activity)"
1,"CC(CCS(=O)(=O)O)C1CCC2C3CCC4CCCCC4(C)C3CCC12C (centres unmarked) [cholanosulfonic acid, 3-(10,13-Dimethyl-hexadecahydro-cyclopenta[a]phenanthren-17-yl)-butane-1-sulfonic acid]",potent agonists

# Same assay, conditions: relative to GW4064
row,"higher efficacy than GW4064, a known non-steroidal FXR agonist",Structure (SMILES)
1,200 times,"C[C@H](CCC(=O)N(C)CC(=O)O)[C@H]1CC[C@H]2[C@@H]3CC[C@@H]4CCCC[C@]4(C)[C@H]3CC[C@]12C [cholamide, N-methyl-N-carboxymethyl-5β-cholanoic acid-24-amide]"

# — US20040014734A1, “Farnesoid X-activated receptor agonists” (priority 2002, published 2004)
